Measurements from patent publication US12018016B2, “Aryl sulfonyl (hydroxy) piperidines as CCR6 inhibitors” (CHEMOCENTRYX, INC., priority 2021, dated 2024).

molecular target: T1, human CCR6 (Homo sapiens, UniProt P51684); assay: Migration assay (chemotaxis, ChemoTX); type: cell-based; details: hCCR6-transfected Ba/F3 cells in human serum, migration to recombinant human CCL20 10 nM, 37° C. 45 minutes; read-out: Potency (IC50 value in the migration assay)
T1 construct: expressed in transfected cells; host or cells: Ba/F3 cells (mouse pro-B line)
T1 sequence (P51684 1-374): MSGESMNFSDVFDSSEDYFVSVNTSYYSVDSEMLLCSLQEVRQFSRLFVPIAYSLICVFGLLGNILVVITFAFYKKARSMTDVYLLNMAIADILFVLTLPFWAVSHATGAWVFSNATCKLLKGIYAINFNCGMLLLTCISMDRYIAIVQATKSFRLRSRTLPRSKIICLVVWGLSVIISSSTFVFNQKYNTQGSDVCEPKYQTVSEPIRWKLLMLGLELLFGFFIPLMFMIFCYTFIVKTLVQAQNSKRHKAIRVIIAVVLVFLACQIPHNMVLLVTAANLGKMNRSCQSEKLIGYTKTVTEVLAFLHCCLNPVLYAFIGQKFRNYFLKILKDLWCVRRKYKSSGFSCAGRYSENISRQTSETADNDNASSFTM
Outline: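 Ba/F3 cells transfected with human CCR6 and butyrate-primed for 24 h were suspended at 4 million/ml in human serum with compound, serially diluted from a 1 μM final top concentration. Cells migrated through a 5-μm polycarbonate membrane toward 10 nM human CCL20 for 45 min at 37 °C. Migrated cells were quantified by CyQUANT fluorescence.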

| Compound | IC50 [nM] |
| --- | --- |
| O=S(=O)(c1ccc(-c2ccnc(N3CCC(O)CC3)c2)cc1)N1CC[C@@H](Nc2ccc(C(F)(F)F)cn2)[C@@H](O)C1 [Compound 131] | < 1 |
| Cc1cc2[nH]nc(C#N)c2cc1-c1ccc(S(=O)(=O)N2CC[C@@H](Nc3ccc(C(F)(F)F)cn3)[C@@H](O)C2)cc1 [Example 36, 5-(4-(((3S,4R)-3-hydroxy-4-((5-(trifluoromethyl)pyridin-2-yl)amino)piperidin-1-yl)sulfonyl)phenyl)-6-methyl-1H-indazole-3-carbonitrile] | < 1 |
| Cc1cc(-c2ccc(S(=O)(=O)N3CC[C@@H](Nc4ccc(C(F)(F)F)cn4)[C@@H](O)C3)cc2)cc2c(C#N)nn(C)c12 [Compound 121] | < 1 |
| O=S(=O)(c1ccc(-c2cnc3[nH]ccc3c2C(F)(F)F)cc1)N1CC[C@@H](Nc2ccc(C(F)(F)F)cn2)[C@@H](O)C1 [Example 22, (3S,4R)-1-((4-(4-(trifluoromethyl)-1H-pyrrolo[2,3-b]pyridin-5-yl)phenyl)sulfonyl)-4-((5-(trifluoromethyl)pyridin-2-yl)amino)piperidin-3-ol] | < 1 |
| CNC(=O)c1cc(-c2ccc(S(=O)(=O)N3CC[C@@H](Nc4ccc(C(F)(F)F)cn4)[C@@H](O)C3)cc2)ccn1 [Example 50, 4-(4-(((3S,4R)-3-hydroxy-4-((5-(trifluoromethyl)pyridin-2-yl)amino)piperidin-1-yl)sulfonyl)phenyl)-N-methylpicolinamide] | < 1 |
| N#Cc1cc(-c2ccc(S(=O)(=O)N3CC[C@@H](Nc4ccc(C(F)(F)F)cn4)[C@@H](O)C3)cc2)cnn1 [Compound 199] | 1 to 10 |
| N[C@H]1C[C@@H](Nc2ccc(-c3ccc(S(=O)(=O)N4CC[C@@H](Nc5ccc(C(F)(F)F)cn5)[C@@H](O)C4)cc3)cn2)C1 [Compound 97] | < 1 |
| O=C1Nc2ncc(-c3ccc(S(=O)(=O)N4CC[C@@H](Nc5ccc(C(F)(F)F)cn5)[C@@H](O)C4)cc3)cc2C12CC2 [Compound 212] | < 1 |
| NC(=O)Cc1cc(-c2ccc(S(=O)(=O)N3CC[C@@H](Nc4ccc(C(F)(F)F)cn4)[C@@H](O)C3)cc2)ccn1 [Compound 207] | 1 to 10 |
| Cc1cc(C(F)(F)F)cnc1N[C@@H]1CCN(S(=O)(=O)c2ccc(-c3ccnc(C(N)=O)c3)cc2)C[C@@H]1O [Compound 82, 4-[4-[[(3S,4R)-3-hydroxy-4-[[3-methyl-5-(trifluoromethyl)-2-pyridyl]amino]-1-piperidyl]sulfonyl]phenyl]pyridine-2-carboxamide] | < 1 |
| NC(=O)c1cc(-c2ccc(S(=O)(=O)N3CC[C@@H](Nc4ccc(C(F)(F)F)cn4)[C@@H](O)C3)cc2)cc(N)n1 [Compound 202] | < 1 |
| COC1CN(c2ccc(-c3ccc(S(=O)(=O)N4CC[C@@H](Nc5ccc(C(F)(F)F)cn5)[C@@H](O)C4)cc3)cn2)C1 [Compound 95] | 1 to 10 |
| O=C1CN(c2cc(-c3ccc(S(=O)(=O)N4CC[C@@H](Nc5ccc(C(F)(F)F)cn5)[C@@H](O)C4)cc3)ccn2)CCN1 [Compound 173] | < 1 |
| CNc1cc(-c2ccc(S(=O)(=O)N3CC[C@@H](Nc4ccc(C(F)(F)F)cn4)[C@@H](O)C3)cc2)ccn1 [Compound 125] | 1 to 10 |
| COc1nccc(-c2ccc(S(=O)(=O)N3CC[C@@H](Nc4ccc(C(F)(F)F)cn4)[C@@H](O)C3)cc2)c1OC [Compound 150] | < 1 |
| CC(C)(C)OC(=O)NCCn1cc(C#N)c2cc(-c3ccc(S(=O)(=O)N4CC[C@@H](Nc5ccc(C(F)(F)F)cn5)[C@@H](O)C4)cc3)cnc21 [Example 29, tert-Butyl (2-(3-cyano-5-(4-(((3S,4R)-3-hydroxy-4-((5-(trifluoromethyl)pyridin-2-yl)amino)piperidin-1-yl)sulfonyl)phenyl)-1H-pyrrolo[2,3-b]pyridin-1-yl)ethyl)carbamate] | < 1 |
| O=C1NCC[C@H]1Nc1ccc(-c2ccc(S(=O)(=O)N3CC[C@@H](Nc4ccc(C(F)(F)F)cn4)[C@@H](O)C3)cc2)cn1 [Compound 169] | < 1 |
| Cc1c(-c2ccc(S(=O)(=O)N3CC[C@@H](Nc4ccc(C(F)(F)F)cn4)[C@@H](O)C3)cc2)ccnc1C(N)=O [Example 6, 4-(4-(((3S,4R)-3-Hydroxy-4-((5-(trifluoromethyl)pyridin-2-yl)amino)piperidin-1-yl)sulfonyl)phenyl)-3-methylpicolinamide] | < 1 |
| O=S(=O)(c1ccc(-c2ccnc(N3CCNCC3)c2)cc1)N1CC[C@@H](Nc2ccc(C(F)(F)F)cn2)[C@@H](O)C1 [Compound 158] | 1 to 10 |
| NC(=O)c1cc(-c2ccc(S(=O)(=O)N3CC[C@@H](Nc4ccc(C(F)(F)F)cn4)[C@@H](O)C3)cc2)cnc1O [Example 51, 2-Hydroxy-5-(4-(((3S,4R)-3-hydroxy-4-((5-(trifluoromethyl)pyridin-2-yl)amino)piperidin-1-yl)sulfonyl)phenyl)nicotinamide] | < 1 |
| O=C1NCc2cc(-c3ccc(S(=O)(=O)N4CC[C@@H](Nc5ccc(C(F)(F)F)cn5)[C@@H](O)C4)cc3)ccc2N1 [Example 14, 6-(4-(((3S,4R)-3-hydroxy-4-((5-(trifluoromethyl)pyridin-2-yl)amino)piperidin-1-yl)sulfonyl)phenyl)-3,4-dihydroquinazolin-2(1H)-one] | < 1 |

| Compound | IC50 [nM] |
| --- | --- |
| CNC(=O)N1Cc2ccc(-c3ccc(S(=O)(=O)N4CC[C@@H](Nc5ccc(C(F)(F)F)cn5)[C@@H](O)C4)cc3)cc2C1 [Compound 187] | < 1 |
| O=S(=O)(c1ccc(-c2ccnc(-c3ncc[nH]3)c2)cc1)N1CC[C@@H](Nc2ccc(C(F)(F)F)cn2)[C@@H](O)C1 [Example 52, (3S,4R)-1-((4-(2-(1H-imidazol-2-yl)pyridin-4-yl)phenyl)sulfonyl)-4-((5-(trifluoromethyl)pyridin-2-yl)amino)piperidin-3-ol] | < 1 |
| O=S(=O)(c1ccc(-c2ccc(N3CCCCC3)nc2)cc1)N1CC[C@@H](Nc2ccc(C(F)(F)F)cn2)[C@@H](O)C1 [Compound 109] | 1 to 10 |
| CN(C)[C@H]1C[C@H](Nc2ccc(-c3ccc(S(=O)(=O)N4CC[C@@H](Nc5ccc(C(F)(F)F)cn5)[C@@H](O)C4)cc3)cn2)C1 [Compound 91] | 1 to 10 |
| O=S(=O)(c1ccc(-c2ccnc(N3CC4(COC4)C3)c2)cc1)N1CC[C@@H](Nc2ccc(C(F)(F)F)cn2)[C@@H](O)C1 [Compound 135] | < 1 |
| COc1c(-c2ccc(S(=O)(=O)N3CC[C@@H](Nc4ccc(C(F)(F)F)cn4)[C@@H](O)C3)cc2)ccnc1C(N)=O [Compound 182] | < 1 |
| Cc1c(-c2ccc(S(=O)(=O)N3CC[C@@H](Nc4ccc(C(F)(F)F)cn4)[C@@H](O)C3)cc2)ccnc1N [Compound 166] | < 1 |
| CN(c1ccc(-c2ccc(S(=O)(=O)N3CC[C@@H](Nc4ccc(C(F)(F)F)cn4)[C@@H](O)C3)cc2)cn1)C1CCC1 [Compound 102] | 1 to 10 |
| COc1cnc(C)cc1-c1ccc(S(=O)(=O)N2CC[C@@H](Nc3ccc(C(F)(F)F)cn3)[C@@H](O)C2)cc1 [Compound 156] | < 1 |
| O=c1[nH]c2ccc(-c3ccc(S(=O)(=O)N4CC[C@@H](Nc5ccc(C(F)(F)F)cn5)[C@@H](O)C4)cc3)cc2[nH]1 [Example 47, 5-(4-(((3S,4R)-3-hydroxy-4-((5-(trifluoromethyl)pyridin-2-yl)amino)piperidin-1-yl)sulfonyl)phenyl)-1,3-dihydro-2H-benzo[d]imidazol-2-one] | < 1 |
| Nc1ccc(-c2ccc(S(=O)(=O)N3CC[C@@H](Nc4ccc(C(F)(F)F)cn4)[C@@H](O)C3)cc2)cn1 [Compound 160] | < 1 |
| Cc1ccnc(C)c1-c1ccc(S(=O)(=O)N2CC[C@@H](Nc3ccc(C(F)(F)F)cn3)[C@@H](O)C2)cc1 [Compound 116] | < 1 |
| Cc1cncc(-c2ccc(S(=O)(=O)N3CC[C@@H](Nc4ccc(C(F)(F)F)cn4)[C@@H](O)C3)cc2)c1 [Compound 152] | < 1 |
| O=S(=O)(c1ccc(-c2ccc(N3CCCC3)nc2)cc1)N1CC[C@@H](Nc2ccc(C(F)(F)F)cn2)[C@@H](O)C1 [Compound 172] | < 1 |
| COc1nccc(-c2ccc(S(=O)(=O)N3CC[C@@H](Nc4ccc(C(F)(F)F)cn4)[C@@H](O)C3)cc2)c1C [Compound 155] | < 1 |
| COc1c(-c2ccc(S(=O)(=O)N3CC[C@@H](Nc4ccc(C(F)(F)F)cn4)[C@@H](O)C3)cc2)cnc2[nH]cc(C#N)c12 [Compound 118] | < 1 |
| CN(C)C1CCN(c2cc(-c3ccc(S(=O)(=O)N4CC[C@@H](Nc5ccc(C(F)(F)F)cn5)[C@@H](O)C4)cc3)ccn2)CC1 [Compound 143] | 1 to 10 |
| COc1c(-c2ccc(S(=O)(=O)N3CC[C@@H](Nc4ccc(C(F)(F)F)cn4)[C@@H](O)C3)cc2)cnc2[nH]ccc12 [Example 58, (3S,4R)-1-((4-(4-methoxy-1H-pyrrolo[2,3-b]pyridin-5-yl)phenyl)sulfonyl)-4-((5-(trifluoromethyl)pyridin-2-yl)amino)piperidin-3-ol] | < 1 |
| O=S(=O)(c1ccc(-c2ccc(N3CC[C@@H](O)C3)nc2)cc1)N1CC[C@@H](Nc2ccc(C(F)(F)F)cn2)[C@@H](O)C1 [Compound 176] | < 1 |
| COc1cc(-c2ccc(S(=O)(=O)N3CC[C@@H](Nc4ccc(C(F)(F)F)cn4)[C@@H](O)C3)cc2)cc(C(N)=O)n1 [Example 44, 4-(4-(((3S,4R)-3-Hydroxy-4-((5-(trifluoromethyl)pyridin-2-yl)amino)piperidin-1-yl)sulfonyl)phenyl)-6-methoxypicolinamide] | < 1 |
